Converted amounts (≈) assume the structure as drawn.
Assays:
Pseudomonas aeruginosa [1] = test: microbe, parasite or virus in culture; details: ATCC 27853
in vivo [2] = details: mouse, sc, 150 mg/kg
Burkholderia cepacia = test: microbe, parasite or virus in culture
Klebsiella pneumoniae [3] = test: microbe, parasite or virus in culture; details: T6474
in vitro [4] = details: rat, liver microsomes
Klebsiella aerogenes = test: microbe, parasite or virus in culture
Morganella morganii = test: microbe, parasite or virus in culture
Klebsiella pneumoniae [5] = test: microbe, parasite or virus in culture
physchem [6] = details: n-octanol/phosphate buffer, pH 7.4
in vitro [7] = details: human, hepatocytes
physchem [8] = details: 5% mannitol/water, pH 8.2
in vitro [9] = details: rat, hepatocytes
Acinetobacter baumannii = test: microbe, parasite or virus in culture
in vitro [10] = details: rat, plasma
Haemophilus influenzae = test: microbe, parasite or virus in culture
Escherichia coli [11] = test: microbe, parasite or virus in culture
physchem [12] = details: buffer, pH 7
Serratia marcescens = test: microbe, parasite or virus in culture
Enterobacter cloacae = test: microbe, parasite or virus in culture
in vitro [13] = details: human, liver microsomes
Escherichia coli [14] = test: microbe, parasite or virus in culture; details: ATCC 25922
Proteus mirabilis = test: microbe, parasite or virus in culture
in vivo [15] = details: Wistar, rat, iv, 10 mg/kg
[16] = tested on: Stenotrophomonas maltophilia; test: microbe, parasite or virus in culture
physchem [17] = details: buffer, pH 9
physchem [18] = details: buffer, pH 4
Klebsiella oxytoca = test: microbe, parasite or virus in culture
Moraxella catarrhalis = test: microbe, parasite or virus in culture
Pseudomonas aeruginosa [19] = test: microbe, parasite or virus in culture
Citrobacter freundii = test: microbe, parasite or virus in culture
[20] = tested on: T1, UDP-3-O-acyl-N-acetylglucosamine deacetylase (Pseudomonas aeruginosa (strain ATCC 15692 / PAO1 / 1C / PRS 101 / LMG12228)), P47205 [C40S]; details: 25 uM
T1 sequence (whole entry): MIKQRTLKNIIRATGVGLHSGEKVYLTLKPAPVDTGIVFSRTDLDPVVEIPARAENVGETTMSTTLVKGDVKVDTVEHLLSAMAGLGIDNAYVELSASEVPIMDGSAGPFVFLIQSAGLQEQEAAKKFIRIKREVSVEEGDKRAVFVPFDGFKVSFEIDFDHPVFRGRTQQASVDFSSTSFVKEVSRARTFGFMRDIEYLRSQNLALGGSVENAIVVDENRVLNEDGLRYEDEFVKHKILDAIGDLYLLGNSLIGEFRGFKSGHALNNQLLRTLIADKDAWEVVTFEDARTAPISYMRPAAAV

in vivo [21] = details: Wistar, rat, iv, 50 mg/kg
[22] = tested on: T2, UDP-3-O-acyl-N-acetylglucosamine deacetylase (Escherichia coli K-12), P0A725 [C125S]; details: 25 uM
T2 sequence (whole entry): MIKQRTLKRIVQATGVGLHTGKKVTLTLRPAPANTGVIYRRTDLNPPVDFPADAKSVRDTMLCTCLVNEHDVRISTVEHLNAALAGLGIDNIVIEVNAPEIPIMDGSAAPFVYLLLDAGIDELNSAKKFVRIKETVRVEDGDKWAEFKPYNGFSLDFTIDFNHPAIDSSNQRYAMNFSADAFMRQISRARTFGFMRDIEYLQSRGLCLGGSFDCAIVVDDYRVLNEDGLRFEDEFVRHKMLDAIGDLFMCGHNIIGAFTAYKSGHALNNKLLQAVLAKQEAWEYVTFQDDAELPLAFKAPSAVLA

physchem [23] = test: physchem
physchem [24] = details: 5% mannitol/water, pH 4.5
physchem [25] = details: 5% mannitol/water, pH 8.4

SMILES | MIC (Pseudomonas aeruginosa [1]) [µg/mL] | AUC(0-t) at 24 h (in vivo [2]) [µg·h/mL] | MIC90 (Burkholderia cepacia) [µg/mL] | MIC (Klebsiella pneumoniae [3]) [µg/mL] | microsomal CLint at 1 µM (in vitro [4]) [µL/min/mg] | MIC90 (Klebsiella aerogenes) [µg/mL] | MIC90 (Morganella morganii) [µg/mL] | MIC90 (Klebsiella pneumoniae [5]) [µg/mL] | logD (physchem [6]) | hepatocyte CLint at 1 µM (in vitro [7]) [µL/min/1e6 cells] | hepatocyte CLint at 1 µM (in vitro [9]) [µL/min/1e6 cells] | MIC90 (Acinetobacter baumannii) [µg/mL] | fraction unbound at 1 µM (in vitro [10]) | MIC90 (Haemophilus influenzae) [µg/mL] | MIC90 (Escherichia coli [11]) [µg/mL] | solubility at 24 h (physchem [12]) [µg/mL] | MIC90 (Serratia marcescens) [µg/mL] | MIC90 (Enterobacter cloacae) [µg/mL] | microsomal CLint at 1 µM (in vitro [13]) [µL/min/mg] | MIC (Escherichia coli [14]) [µg/mL] | further results
C[C@@](CCN1Cc2cc(C#CC#C[C@H]3C[C@@H]3[C@@H](O)CO)cn2C1=O)(C(=O)NO)S(C)(=O)=O | 1 (≈ 2.16 µM) | 347 | 8 (≈ 17.3 µM) | 1 (≈ 2.16 µM) | < 10 | 2 (≈ 4.31 µM) | 1 (≈ 2.16 µM) | 4 (≈ 8.63 µM) | 0.5 | < 2 | 10.2 | > 16 | 0.018 | ≤ 0.03 | 2 (≈ 4.31 µM) | > 780 | 0.5 (≈ 1.08 µM) | 4 (≈ 8.63 µM) | < 10 | 0.5 (≈ 1.08 µM) | solubility (physchem [8]): 25000 µg/mL (≈ 53900 µM); MIC90 (Proteus mirabilis): 1 µg/mL (≈ 2.16 µM); clearance at 24 h (in vivo [15]): 3.1 mL/min/kg; MIC90 [16]: > 16 µg/mL; solubility at 24 h (physchem [17]): > 780 µg/mL; solubility at 24 h (physchem [18]): > 780 µg/mL; MIC90 (Klebsiella oxytoca): 4 µg/mL (≈ 8.63 µM); MIC90 (Moraxella catarrhalis): > 16 µg/mL; MIC90 (Pseudomonas aeruginosa [19]): 2 µg/mL (≈ 4.31 µM); MIC90 (Citrobacter freundii): 1 µg/mL (≈ 2.16 µM)
C[C@@](CCN1Cc2cc(C#CC#CC3CN(CCO)C3)cn2C1=O)(C(=O)NO)S(C)(=O)=O | 0.5 (≈ 1.08 µM) | 63.2 | 16 (≈ 34.6 µM) | 1 (≈ 2.16 µM) | 198 | 1 (≈ 2.16 µM) | 1 (≈ 2.16 µM) | 2 (≈ 4.32 µM) | 0.1 | < 2 | 7.3 | > 16 | 0.301 | ≤ 0.03 | 1 (≈ 2.16 µM) | > 780 | 1 (≈ 2.16 µM) | 4 (≈ 8.65 µM) | 14 | 0.5 (≈ 1.08 µM) | deltaTm [20]: 11.2 K; clearance at 24 h (in vivo [21]): 28 mL/min/kg; deltaTm [22]: 9.7 K; MIC90 (Proteus mirabilis): 1 µg/mL (≈ 2.16 µM); pKa (physchem [23]): 7.9; MIC90 [16]: > 16 µg/mL; solubility (physchem [24]): 30000 µg/mL (≈ 64900 µM); solubility at 24 h (physchem [17]): > 780 µg/mL; solubility at 24 h (physchem [18]): > 780 µg/mL; MIC90 (Klebsiella oxytoca): 4 µg/mL (≈ 8.65 µM); MIC90 (Moraxella catarrhalis): > 16 µg/mL; MIC90 (Pseudomonas aeruginosa [19]): 2 µg/mL (≈ 4.32 µM); MIC90 (Citrobacter freundii): 1 µg/mL (≈ 2.16 µM)
C[C@@](CCN1Cc2cc(C#CC#C[C@@H]3C[C@@]3(F)CO)cn2C1=O)(C(=O)NO)S(C)(=O)=O | 0.5 (≈ 1.11 µM) | 236 | 2 (≈ 4.43 µM) | 0.5 (≈ 1.11 µM) | 12 | 2 (≈ 4.43 µM) | 0.5 (≈ 1.11 µM) | 4 (≈ 8.86 µM) | 0.9 | < 2 | 13 | > 16 | 0.017 | ≤ 0.03 | 2 (≈ 4.43 µM) | 248 (≈ 549 µM) | 1 (≈ 2.21 µM) | 4 (≈ 8.86 µM) | < 10 | 0.25 (≈ 0.554 µM) | solubility (physchem [25]): 1000 µg/mL (≈ 2210 µM); MIC90 (Proteus mirabilis): 2 µg/mL (≈ 4.43 µM); clearance at 24 h (in vivo [15]): 5.2 mL/min/kg; MIC90 [16]: > 16 µg/mL; solubility at 24 h (physchem [17]): > 760 µg/mL; solubility at 24 h (physchem [18]): 220 µg/mL (≈ 487 µM); MIC90 (Klebsiella oxytoca): 4 µg/mL (≈ 8.86 µM); MIC90 (Moraxella catarrhalis): > 16 µg/mL; MIC90 (Pseudomonas aeruginosa [19]): 2 µg/mL (≈ 4.43 µM); MIC90 (Citrobacter freundii): 1 µg/mL (≈ 2.21 µM)

— ChEMBL document CHEMBL4321867, “Optimization of LpxC Inhibitor Lead Compounds Focusing on Efficacy and Formulation for High Dose Intravenous Administration” (J Med Chem, 2020)
